According to patent publication US20120322699A1, “Method of Preventing Scale Formation During Enhanced Oil Recovery” (Chevron U.S.A. Inc., priority 2011, published 2012):

Columns and labels:
[1] = Bottle test of scale prevention capacity of metal complexing agents; format: physicochemical
Description: Scale prevention capacity of the metal complexing agents were then tested using the following bottle test procedure: • 1. Synthetic field brine was prepared with NaCl and NaHCO3 (constituents of the brine) but CaCl2 and MgCl2 content was temporarily withheld to avoid premature scaling. • 2. Metal complexing agent was added to the brine above in a stoichiometrically required amount and at higher concentrations and the solution was allowed to equilibrate after thorough mixing. • 3. CaCl2 and MgCl2 were added and the brine solutions were equilibrated. • 4. In a preliminary test, the impact of pH alone was evaluated. […] If no scale was observed, step 4 was repeated with addition of Na2CO3.

[2] = Final bottle tests of formulations at lower agent concentrations with scale inhibitors; format: physicochemical
Description: Based on the above results, two commercial scale inhibitors were combined in synthetic brine with the metal complexing agents. The pH of the solutions was raised by addition of 1.0M NaOH to simulate the basic environment during an alkaline flood. The following procedure was used to prepare the aqueous solutions: • 1. Synthetic field brine was prepared by temporarily excluding the HCO3^−. • 2. Scale inhibitor was added and the solution was allowed to equilibrate after thorough mixing. • 3. Metal complexing agent was added to the brine above in concentrations near half of the stoichiometrically required amount and the solution was allowed to equilibrate after thorough mixing. • 4. NaHCO3 was added and the brine solutions were equilibrated. • 5.

[3] = Initial screening of complexing agents and scale inhibitors with synthetic brine; format: physicochemical; conditions: for Maximum pH: complexing agents, synthetic brine 1,000 ppm Ca2+/Mg2+, 450 ppm HCO3-
Description: Eight different metal complexing agents and five commercial scale inhibitors were tested according to known laboratory methods with a synthetic brine containing 1,000 ppm of divalent cation (Ca^2+/Mg^2+) and 450 ppm of HCO3^−. Among the complexing agents tested, six were organic ligands with carboxylate moieties and two were inorganic phosphates. The five scale inhibitors tested were commercial products supplied by Nalco Chemicals based on phosphonate, acrylate and sulfonate.

[4] = Initial bottle tests with BASF complexing agents without changing the pH; format: physicochemical; conditions: equimolar concentration (7,350 ppm) with the calcium ions, hard brine
Description: The initial bottles tests were designed at the reported calcium binding capacity of the agents without changing the pH.

[5] = at 25° C.; cited from earlier work
[6] = agent 1.5 %, alkali NaOH, pH 8.80
[7] = agent 0.8 %, alkali Na2B2O4, pH 10.10
[8] = agent 1.5 %, alkali Na2B2O4, pH 10.10
[9] = agent 1.5 %, alkali Na2CO3, pH 10.10
[10] = agent 1.1 %, alkali Na2B2O4, pH 9.97
[11] = agent 1.1 %, alkali Na2B2O4, pH 10.10
[12] = agent 1.1 %, alkali Na2B2O4, pH 10.15
[13] = agent 1.1 %, alkali Na2CO3, pH 10.60
[14] = agent 1.1 %, alkali Na2CO3, pH 10.69
[15] = agent 1.1 %, alkali Na2CO3, pH 10.77
[16] = agent 1.5 %, alkali NaOH, pH 10.20

For `O=P([O-])([O-])OP(=O)([O-])[O-].[K+].[K+].[K+].[K+]` [Tetrapotassium pyrophosphate], the “Status (next day)” value [1, 6] was “scale” and the “Status (same day)” value [1, 6] was “scale”.

For `O=C([O-])CN(CC(=O)[O-])CC(=O)[O-].[Na+].[Na+].[Na+]` [NTA-Na3, sodium nitrilotriacetate], the “Status (next day)” value ([1]; agent 0.8 %, no alkali added) was “scale”, the “Status (same day)” value ([1]; agent 0.8 %, no alkali added) was “scale” and the “Status (next day)” value ([1]; agent 1.1 %, no alkali added) was “scale”. For the same molecule, the “Status (same day)” value ([1]; agent 1.1 %, no alkali added) was “scale”, the “Status (next day)” value ([1]; agent 1.5 %, no alkali added) was “scale” and the “Status (same day)” value ([1]; agent 1.5 %, no alkali added) was “scale”.

For `O=C(O)CN(CCN(CC(=O)O)CC(=O)O)CC(=O)O` [EDTA, ethylenediaminetetraacetic acid], the “complexing agent concentration when used with scale inhibitor” value ([2]; in combination with 200 ppm VX9400) was 7,500 ppm.

In the case of `O=C([O-])CC(O)(CC(=O)[O-])C(=O)[O-].[Na+].[Na+].[Na+]` [Sodium citrate, sodium citrate], the “overall assessment from bottle test results” value [1] is reported as “not a successful selection”, the “Status (next day)” value [1, 7] is reported as “scale” and the “Status (same day)” value [1, 7] is reported as “clear”. The “Status (next day)” value [1, 8] was “scale”, the “Status (same day)” value [1, 8] was “clear” and the “Status (next day)” value [1, 9] was “scale”. For the same molecule, the “Status (same day)” value [1, 9] was “scale”.

In the case of `CC(=O)ON(CCN(OC(C)=O)OC(C)=O)OC(C)=O.[Na]` [EDTA-Na4, sodium ethylenediamine tetraacetate], the “Status (next day)” value [1, 10] is reported as “clear”, the “Status (same day)” value [1, 10] is reported as “clear” and the “Status (next day)” value [1, 11] is reported as “clear”. For the same molecule, the “Status (same day)” value [1, 11] was “clear”, the “Status (next day)” value [1, 12] was “clear” and the “Status (same day)” value [1, 12] was “clear”. For the same molecule, the “Status (next day)” value [1, 13] was “clear”, the “Status (same day)” value [1, 13] was “clear” and the “Status (next day)” value [1, 14] was “clear”. For the same molecule, the “Status (same day)” value [1, 14] was “clear”, the “Status (next day)” value [1, 15] was “clear” and the “Status (same day)” value [1, 15] was “clear”. The “pH value up to which effective” value ([3]; 11,000 ppm in hard field brine (equimolar Ca:EDTA)) was at most 10.7 and the “Maximum pH” value [3] was 10.7.

For `O.O=C([O-])/C=C\C(=O)[O-].[Na+].[Na+]` [Sodium maleate, sodium maleate monohydrate], the “overall assessment from bottle test results” value [1] was “promising results”, the “Status (next day)” value [1, 16] was “clear” and the “Status (same day)” value [1, 16] was “clear”. For the same molecule, the “Maximum pH” value [3] was 10.2.

With `CC(C(=O)O)N(CC(=O)O)CC(=O)O` (stereo not shown) [MGDA, methylglycinediacetic acid] the “complexing agent concentration when used with scale inhibitor” value ([2]; in combination with 500 ppm VX9400) was 5,500 ppm and the “pH value up to which scaling prevented” value [4] was at most 9.9.

With `O=P(O)(O)OP(=O)(O)OP(=O)(O)O` [Sodium tripolyphosphate] the “Status (next day)” value ([1]; agent 1.15 %, no alkali added) was “scale”, the “Status (same day)” value ([1]; agent 1.15 %, no alkali added) was “scale” and the “Status (next day)” value ([1]; agent 1.5 %, no alkali added) was “scale”. The “Status (same day)” value ([1]; agent 1.5 %, no alkali added) was “scale”, the “Status (next day)” value ([1]; agent […], no alkali added) was “scale” and the “Status (same day)” value ([1]; agent […], no alkali added) was “scale”. For the same molecule, the water solubility [5] was 14.5 g/100 mL.
